The source of these data is paper PMC8624133, “10th Trends in Medical Mycology Held on 8 to 11 October 2021, Aberdeen, Scotland, Organized by the European Confederation of Medical Mycology (ECMM)” (Journal of Fungi, 2021).

Assay [1] has as its system clinical dermatophyte isolates. Put plainly: Inhibition of dermatophyte biofilm formation. It counts as cell-based. How it is done: Materials and Methods: The study population consisted of 50 dermatophyte isolates that were collected from 2019 to 2020 from patients referred to the two mycology laboratory of Shiraz, Iran. The isolates were identified by ITS gene region sequencing. The suspension (equivalent to 0.5 McFarland) of the isolates was used to evaluate the ability of the isolates to form biofilms and also the effect of itraconazole, terbinafine and griseofulvin at concentrations of 2–32 μg/mL on inhibiting biofilm formation. Two optical microscope and a scanning electron microscope were used to study the microscopic structure of biofilms formed on the surface of 96-well plate wells.

Assay [2] deals with Sporothrix brasiliensis. Put plainly: Murine subcutaneous sporotrichosis model. The note with it: oral gavage once a day, 30 days; ITZ 50 mg/kg; DD 1, 5 or 10 mg/kg. It counts as in vivo, Balb/c mice. How it is done: Materials & Methods: 50 Balb/c mice, male, five to seven-week-old, were subcutaneous infected (left footpad) by a clinical isolate of S. brasiliensis (5.4 × 10^7 yeast/mice). Treatments started seven days post-inoculation (p.i) in all five groups (10 mice/each): G1 control group (placebo—receiving just the diluent of the drugs), G2 treatment group (itraconazole—ITZ 50 mg/kg); G3 to G5 DD treatment groups, 1, 5 and 10 mg/kg, respectively. All mice were treated once a day by oral gavage, for 30 consecutive days. Physical conditions and behavior were daily evaluated, and individual weight was weekly determined. At the 32nd day p.i. (48 h after the end of the treatments) animals were euthanasied and lung, liver, brain, kidneys, testicle and footpad were recovered aseptically and homogenized to mycological analysis. Fungal burden in each organ was measured by quantitatively counting colony-forming units (CFU). The determination of colony forming units (CFU)/gram of tissue (g) of S. brasiliensis in internal organs of groups were compared by non-parametric tests using Kruskal-Wallis combined with Wilcoxon. The weight loss assay was calculated considering the percentage of loss and/or increase between the value corresponding to the fungal inoculation day and to the end of the treatment.

Assay [3] has as its system clinical Trichophyton spp. isolates. The assay can be described thus: Checkerboard microdilution based on EUCAST. It counts as cell-based. Conditions: for MIC: Trichophyton, read-out: geometric mean MIC, drug alone. How it is done: Materials & Methods: The combination has been tested against 9 terbinafine-susceptible and 7 terbinafine-resistant clinical Trichophyton spp. isolates from India. In vitro interactions were evaluated by a microdilution checkerboard technique based on the EUCAST reference method for antifungal susceptibility testing. The mode of interaction between terbinafine and itraconazole was determined by the fractional inhibitory concentration index (FICI). The FICI was interpreted as FICI ≤ 0.5 = synergy, FICI > 0.5–4 = no interaction, and FICI > 4.0 = antagonism.
(In general: Broth dilution looks for growth in wells or tubes with falling amounts of substance.)

Assay [4] deals with C. glabrata isolates. Put plainly: Rapid XTT assay based on EUCAST E.Def 7.3. It counts as cell-based, Candida glabrata.
Assay [5] relates to C. blankii. The assay can be described thus: Vitek 2 fungal susceptibility card. In kind it is cell-based, Candida blankii.
In assay [6] the test system is C. parapsilosis. Put plainly: ARIA surveillance, CLSI M27 broth microdilution. It counts as cell-based, Candida parapsilosis.
The test system of assay [7] is CgCDR1, CgCDR2 and CgSNQ2 genes. The assay can be described thus: Real-time PCR of ATP-binding cassette transporter genes. In kind it is cell-based, Candida glabrata. Background: In qPCR the cycle at which signal appears reflects the starting amount.
For assay [8], the system named is Candida albicans and C. glabrata. It counts as cell-based, Candida spp. Conditions: 20 women with RVVC.
Assay [9] has as its system C. auris. Put plainly: EUCAST EDef 7.3.1 MIC and checkerboard microdilution. In kind it is cell-based, Candida auris. How it is done: Methods: We studied 22 C. auris isolates obtained from different clinical samples from the Hospital La Fe, Valencia, Spain (eight from blood culture, seven from oropharynx and seven from urine cultures). Candida parapsilosis ATCC 22019 and Candida krusei ATCC 6258 were used as quality controls. The minimum inhibitory concentration (MIC) was determined according to the European Committee on Antibiotic Susceptibility Testing (EUCAST) EDef 7.3.1 document. The interaction between citral and the rest of antifungal drugs was assessed by a checkerboard microdilution method. […] The in vitro interaction of the drug combinations was interpreted in terms of the fractional inhibitory concentration index (FICI) as follows: FICI < 1, synergistic; FICI equal to 1, additive; and FICI > 1, indifferent or antagonistic.

Assay [10] relates to Asp. niger. Put plainly: Triazole resistance agar screening, four-well plate. Conditions: RPMI agar, 1 µg/mL, 14 isolates.
Method: All the isolates were identified phenotypically. […] Fungal spores were suspended in normal saline (0.85%) and adjusted to 0.5 McFarland and 50 μL was plated in each well. […] Plates were incubated at 35–37 °C for 72 h in ambient air. The presence or absence of growth was observed visually at 24 h, 48 h, and 72 h.
Where [11] appears, read: 7 terbinafine-resistant isolates.
Where [12] appears, read: 9 terbinafine-susceptible isolates.

Values after ≈ are worked out from the molar mass of the structure shown. Values joined by “and” are separate entries in the source; they are usually repeats but may differ in a detail not shown here. Equal values may be shown once. Read-outs that look alike come from different tables or passages of the source.

For the compound `CCC(C)n1ncn(-c2ccc(N3CCN(c4ccc(OCC5COC(Cn6cncn6)(c6ccc(Cl)cc6Cl)O5)cc4)CC3)cc2)c1=O` (stereo not shown) [itraconazole], in assay [1] (inhibition of biofilm formation, read-out: mean concentrations of IC50), the IC50 was found to be 3.78 µg/mL (≈ 5.36 µM). The “samples with IC50 in concentration <2” value in [1] (tested at 2–32 μg/mL) was found to be 70%. Besides, in assay [2], the “fungal burden of internal organs vs placebo group” value is reported as “lower fungal burden”. Also, in assay [3] (setting [11]), the “MIC range, drug alone” value is 0.0625 to 0.5 µg/mL and the MIC (as a rule, the smallest concentration in the dilution series that meets the test's criterion for growth inhibition) was found to be 0.19 µg/mL. Also, in [3] (setting [12]), the “MIC range, drug alone” value was 0.125 to 0.5 µg/mL and the MIC amounted to 0.3 µg/mL.
`OC(Cn1cncn1)(Cn1cncn1)c1ccc(F)cc1F` [fluconazole]: the “XTT-absorbance in drug-treated wells” value in assay [4] was 0.67 ± 0.15 and 0.51 ± 0.08. The susceptibility result is on record as “resistant” in [5]; 52.4% in [6] (Italy); 76.2% in assay [6] (Turkey); 100% in [6] (all countries except Italy and Turkey). Also, in assay [6] (all countries), the overall susceptibility stood at 88.5%. Also, the “expression of CgCDR1, CgCDR2 and CgSNQ2 genes” value in [7] is “over-expressed”. In [8], the “in vitro resistant pathogens” value is 45%.
On to `C[C@@H]1[C@H](O)[C@@H](C)/C=C/C=C/C=C/C=C/C=C/C=C/C=C/[C@H](O[C@@H]2O[C@H](C)[C@@H](O)[C@H](N)[C@@H]2O)C[C@@H]2O[C@](O)(C[C@@H](O)C[C@@H](O)[C@H](O)CC[C@@H](O)C[C@@H](O)CC(=O)O[C@H]1C)C[C@H](O)[C@H]2C(=O)O` [amphotericin B], for which, in [9], the “MIC of amphotericin B in combination with citral” value was 0.016 µg/mL. Moreover, in assay [9] (Candidozyma auris, 22 clinical isolates), the MIC is 0.25 µg/mL.
Regarding `C[C@@H](c1ncncc1F)[C@](O)(Cn1cncn1)c1ccc(F)cc1F` [voriconazole], the figures for the “isolates with growth only in voriconazole well, n (%)” value in assay [10] (48 h) and in [10] (72 h) were 0 and 2 (14.28), respectively.
